These results are taken from ChEMBL document CHEMBL2203036, “Discovery of 1-[2-(2,4-dimethylphenylsulfanyl)phenyl]piperazine (Lu AA21004): a novel multimodal compound for the treatment of major depressive disorder” (J Med Chem, 2011).

SMILES strings stand for the structures.

By Ki is commonly meant the equilibrium dissociation constant of an inhibitor or competing ligand from its target.

The assay concerns the target 5-hydroxytryptamine receptor 2C (Homo sapiens) (UniProt P28335). The experiment in a line: Binding affinity to human 5HT2C receptor.

Sequence of 5-hydroxytryptamine receptor 2C (Homo sapiens) (P28335 whole entry, looked up): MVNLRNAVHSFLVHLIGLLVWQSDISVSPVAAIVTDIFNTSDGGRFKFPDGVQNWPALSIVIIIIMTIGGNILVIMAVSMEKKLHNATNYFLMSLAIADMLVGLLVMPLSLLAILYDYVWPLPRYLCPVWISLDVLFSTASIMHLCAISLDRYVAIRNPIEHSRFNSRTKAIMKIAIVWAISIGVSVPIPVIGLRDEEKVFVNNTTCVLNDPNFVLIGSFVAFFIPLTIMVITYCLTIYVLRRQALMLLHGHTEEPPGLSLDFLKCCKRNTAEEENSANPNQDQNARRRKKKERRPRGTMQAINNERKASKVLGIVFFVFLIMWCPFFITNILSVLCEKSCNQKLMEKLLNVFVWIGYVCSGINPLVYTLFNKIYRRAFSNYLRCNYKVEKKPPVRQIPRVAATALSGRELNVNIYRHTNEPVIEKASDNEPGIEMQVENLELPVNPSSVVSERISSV

In the case of `Cc1ccc(Sc2ccccc2N2CCNCC2)c(C)c1.Cl`, the affinity corresponds to a Ki of 180 nM. In other words, the sub-micromolar range.
